Results as given in patent publication US5462933A, “Modified bile acid conjugates, and their use as pharmaceuticals” (Hoechst Aktiengesellschaft, priority 1989, dated 1995).

Key:
[1] = In vivo perfused liver: absorption from portal vein blood and excretion into the bile; set-up: species or system rat; conditions: after W (Chlorambucil) into mesenteric vein
Experimental: In order to investigate a selective absorption of bile acid derivatives into the liver and their hepatotropic action, the appropriate derivatives were injected as a bolus into a mesenteric vein of anesthetized rats and the excretion of these derivatives and the corresponding active compounds or active compound metabolites into the bile was analysed.
Male Sprague-Dawley rats (300-500 g bodyweight) had their food withdrawn and received water ad libitum. After tracheotomy, the abdomen was opened by median section under urethane anesthesia ([…] i.m. urethane 30%). The pylorus was ligated and the bile duct was cannulated by advancing a polyethylene tube (d=0.05 mm) up to the liver and the bile was drained. The volume of secretion was measured at 15 minute intervals. After a preliminary period of 60 minutes, the substances (0.5 ml of a 1 mM solution in 0.9% NaCl solution) were administered into a mesenteric vein in the course of 30 sec and the bile was collected at prestated time intervals (2, 4, 6, 8, 10, 15, 20, 30, 40, 50, 60, 70, 80, 90, 100, 110 and 120 min). The bile acid derivative was administered first, and the appropriate active compound was administered after a collection period of 2 hours. 120 min after administration of test substance, the bladder volume was measured and the urine was also collected. The bile and urine samples were stored on ice during the experiment and then deep-frozen.
Each 10 μl bile sample was applied to TLC plates (10×20 cm, silica gel 60 specific layer thickness 0.25 mm, No. 37581 Riedel de Haen, Seelze, Federal Republic of Germany) using Microcaps (Drummond, Broomall, USA) and the thin-layer plates were dried in the air for 20 min.
The plates were developed in the following mobile phases: Substance Mobile phase
The constituents of the mobile phases were bought from the usual manufacturers in the highest possible purity grade. After developing and drying the plates, the distribution of the active compounds and the bile acid derivatives, or their metabolites, was determined by densitometry (CD 50 densitometer, DESAGA; Heidelberg). Detection was carried out in reflection mode with linear sampling at the wavelengths 252 nm (chlorambucil/chlorambucil conjugate) or 260 nm (remaining substances).
In order to evaluate the chromatograms, the relative intensity of the bile acid derivatives, the active compounds or the active compound metabolites on a chromatogram was given in surface area units.

[2] = molecular target: T1, Na+-dependent bile acid transport system (Oryctolagus cuniculus, UniProt Q28727); assay: Inhibition of Na+-dependent [3H]taurocholate absorption into brush-border membrane vesicles of the ileum; assay type: biochemical, rabbit; conditions: read-out: IC50
T1 construct: brush-border membrane vesicles from the ileum of rabbits; from tissue; host or cells: terminal ileum of male New Zealand rabbits, brush-border membrane vesicles
T1 sequence (Q28727 1-347): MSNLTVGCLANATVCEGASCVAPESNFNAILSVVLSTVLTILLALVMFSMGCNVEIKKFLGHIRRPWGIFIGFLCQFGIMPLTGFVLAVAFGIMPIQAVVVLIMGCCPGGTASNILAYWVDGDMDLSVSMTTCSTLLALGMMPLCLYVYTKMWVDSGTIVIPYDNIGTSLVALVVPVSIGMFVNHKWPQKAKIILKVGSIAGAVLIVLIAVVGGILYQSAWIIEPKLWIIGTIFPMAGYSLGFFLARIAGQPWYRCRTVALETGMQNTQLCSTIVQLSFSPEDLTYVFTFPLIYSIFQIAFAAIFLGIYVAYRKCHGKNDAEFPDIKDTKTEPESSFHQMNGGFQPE
Experimental: The preparation of brush-border membrane vesicles from the intestinal cells of the small intestine was carried out using the so-called Mg^2+ precipitation method. Male New Zealand rabbits (2-2.5 kg body weight) were sacrificed by intravenous injection of 0.5 ml of T-61^R. The small intestine was removed and rinsed with ice-cold physiological saline solution. The terminal 3/10 of the small intestine (measured in the oral-rectal direction, i.e. the terminal ileum, which contains the active Na^+ -dependent bile acid transport system) were used for preparation of the brush-border membrane vesicles. The intestines were frozen at -80° C. under nitrogen in plastic bags. The frozen intestines were thawed in a water bath at 30° C. in order to prepare the membrane vesicles. The mucosa was scraped off and suspended in 60 ml of ice-cold 12 mM trys/HCl buffer (pH 7.1)/300 mM mannitol, 5 mM EGTA/10 mg/l of phenylmethylsulfonyl fluoride/1 mg/l of soybean trypsin inhibitor (32 U/mg)/0.5 mg/l of bovine lung trypsin inhibitor (193 U/mg)/5 mg/l of bacitracin. After diluting to 300 ml with ice-cold distilled water, the suspension was homogenized with ice-cooling for 3 minutes at 75% of maximum power using an Ultraturrax (18 rod, IKA Werk Staufen, Federal Republic of Germany). After addition of 3 ml of 1M MgCl2 solution (final concentration 10 mM), the homogenate was allowed to stand at 0° C. for exactly 1 minute. As a result of addition of Mg^2+, the cell membranes aggregate and precipitate with the exception of the brush-border membranes. After centrifugation at 3,000×g (5,000 rpm, SS-34 rotor) for 15 minutes, the precipitate is discarded and the supernatant which contains the brush-border membranes is centrifuged at 26,700×g (15,000 rpm, SS-34 rotor) for 30 minutes. The supernatant was discarded, and the precipitate was rehomogenized in 60 ml of 12 mM tris/HCl buffer (pH 7.1)/60 mM mannitol, 5 mM EGTA using a Potter Elvejhem homogenizer (Braun Melsungen, 900 rpm, 10 strokes). After addition of 0.1 ml of 1M MgCl2 solution and an incubation time of 15 minutes at 0° C., the mixture was again centrifuged at 3,000×g for 15 minutes. The supernatant was then again centrifuged at […] (15,000 rpm, SS-34 rotor) for 30 minutes. The precipitate was taken up in 30 ml of 10 mM tris/hepes buffer (pH 7.4)/300 mM mannitol and homogeneously resuspended by 20 strokes in a Potter Elvejhem homogenizer at 1,000 rpm. After centrifugation at 48,000×g (20,000 rpm, SS-34 rotor) for 30 minutes, the precipitate was taken up in 0.5 to 2 ml of tris/hepes buffer (pH 7.4)/280 mM mannitol (final concentration 20 mg/ml) and resuspended with the aid of a tuberculin syringe using a 27 gauge needle. The vesicles were either used immediately after preparation for transport investigations or stored at -196° C. in liquid nitrogen in 4 mg portions.
The absorption of substrates into brush-border membrane vesicles was determined by means of the so-called membrane filtration technique. 10 μl of the vesicle suspension (100 μg of protein) were pipetted on the wall of a polystyrene incubation tube (11×70 mm) as a drop which contained the incubation medium together with the corresponding ligands (90 μl ). […] The incubation medium was filtered through a polyvinylidene fluoride membrane filter (SYHV LO 4NS, 0.45 μm, 4 mm .phi., Millipore, Eschborn, Federal Republic of Germany). The transport measurement was begun by mixing the vesicles with the incubation medium. […] After the desired incubation time (customarily 1 min), the transport was stopped by addition of 1 ml of ice-cold stop solution (10 mM tris/hepes, (pH 7.4)/150 mM KCl). The resulting mixture was immediately filtered off with suction in a vacuum of 25 to 35 mbar through a membrane filter made of cellulose nitrate (ME 25, 0.45 μm, 25 mm diameter, Schleicher & Schuell, Dassell, Federal Republic of Germany). The filter was subsequently washed with 5 ml of ice-cold Stop solution.

SMILES	Conc. of W or a metabolite of W in bile ([1]; bile at 2 min)	Conc. of W or a metabolite of W in bile ([1]; bile at 4 min)	Conc. of W or a metabolite of W in bile ([1]; bile at 6 min)	Conc. of W or a metabolite of W in bile ([1]; bile at 8 min)	Conc. of W or a metabolite of W in bile ([1]; bile at 10 min)	Conc. of W or a metabolite of W in bile ([1]; bile at 15 min)	Conc. of W or a metabolite of W in bile ([1]; bile at 20 min)	Conc. of W or a metabolite of W in bile ([1]; bile at 30 min)	Conc. of W or a metabolite of W in bile ([1]; bile at 40 min)	Conc. of W or a metabolite of W in bile ([1]; bile at 60 min)	Conc. of W or a metabolite of W in bile ([1]; bile at 70 min)	Conc. of W or a metabolite of W in bile ([1]; bile at 80 min)	Conc. of W or a metabolite of W in bile ([1]; bile at 90 min)	Conc. of W or a metabolite of W in bile ([1]; bile at 100 min)	Conc. of W or a metabolite of W in bile ([1]; bile at 110 min)	Conc. of W or a metabolite of W in bile ([1]; bile at 120 min)	IC50 [2]
O=C(O)CCCc1ccc(N(CCCl)CCCl)cc1 [Chlorambucil, [4-(bis-N-(2'-chloroethyl)-aminophenyl)]-butyric acid, reference compound]	1012 surface area units	885 surface area units	1044 surface area units	1160 surface area units	810 surface area units	689 surface area units	1481 surface area units	704 surface area units	511 surface area units	620 surface area units	1769 surface area units	501 surface area units	813 surface area units	523 surface area units	604 surface area units	531 surface area units	–
C[C@H](CCC(=O)NCCS(=O)(=O)O)[C@H]1CC[C@H]2[C@@H]3CC[C@@H]4C[C@H](O)CC[C@]4(C)[C@H]3CC[C@]12C [Taurolithocholate, reference compound]	–	–	–	–	–	–	–	–	–	–	–	–	–	–	–	–	12 µM
C[C@H](CCC(=O)NCCS(=O)(=O)O)[C@H]1CC[C@H]2[C@@H]3CC[C@@H]4C[C@H](OS(=O)(=O)O)CC[C@]4(C)[C@H]3CC[C@]12C [Taurolithocholate-3-sulfate, reference compound]	–	–	–	–	–	–	–	–	–	–	–	–	–	–	–	–	245 µM
